Where a SMILES comes first, the peptide text is derived from it. Bridges are numbered along the chain shown (N, C = ends). [ ]: non-standard residue; d: D form. The star is where a group is joined. X2 = O=C(O)c1cc(C(=O)*)ccc1-c1c2ccc(=O)cc-2oc2cc(O)ccc12; PEG12 = NCCOCCOCCOCCOCCOCCOCCOCCOCCOCCOCCOCCOCCC(=O)O; NMePhe(3-Cl) = CN[C@@H](Cc1cccc(Cl)c1)C(=O)O; NMeW = CN[C@@H](Cc1c[nH]c2ccccc12)C(=O)O

In one assay the target is transferrin receptor (hTfR) (Homo sapiens, UniProt P02786). As to the kind of experiment: Intermolecular interaction evaluation test between transferrin receptor (hTfR) and peptide by surface plasmon resonance (SPR). Conditions: SPR; peptides, linker-added peptides and FITC conjugates, Patent ID 203-230; read-out: KD. The format is binding. In short, it runs like this: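 Receptor was Ni-captured and EDC/NHS-fixed on an NTA chip; running buffer HEPES pH 8.0 with NaCl, Tween 20, BSA and 1.0% DMSO.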
Sequence of transferrin receptor (hTfR) (P02786 whole entry): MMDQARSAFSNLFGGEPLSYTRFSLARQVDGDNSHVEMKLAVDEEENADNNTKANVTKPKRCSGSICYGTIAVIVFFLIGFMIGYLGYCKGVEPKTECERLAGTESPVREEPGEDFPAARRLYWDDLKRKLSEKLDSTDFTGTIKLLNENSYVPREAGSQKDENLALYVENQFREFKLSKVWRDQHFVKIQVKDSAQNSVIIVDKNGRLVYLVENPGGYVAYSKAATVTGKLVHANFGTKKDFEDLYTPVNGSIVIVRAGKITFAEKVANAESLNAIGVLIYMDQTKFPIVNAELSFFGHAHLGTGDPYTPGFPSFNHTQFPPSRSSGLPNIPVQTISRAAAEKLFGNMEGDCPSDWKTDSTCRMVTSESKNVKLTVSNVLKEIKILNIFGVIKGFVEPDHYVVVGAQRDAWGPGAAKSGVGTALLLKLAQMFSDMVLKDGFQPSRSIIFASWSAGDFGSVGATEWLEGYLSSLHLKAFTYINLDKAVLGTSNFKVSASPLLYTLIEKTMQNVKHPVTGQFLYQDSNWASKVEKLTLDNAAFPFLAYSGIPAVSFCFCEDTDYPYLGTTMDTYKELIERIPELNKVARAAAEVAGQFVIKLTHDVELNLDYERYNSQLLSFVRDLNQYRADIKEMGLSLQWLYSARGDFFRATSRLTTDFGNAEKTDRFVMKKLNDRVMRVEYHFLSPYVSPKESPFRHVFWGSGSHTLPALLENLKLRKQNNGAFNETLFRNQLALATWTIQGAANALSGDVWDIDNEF
In the case of `CC[C@H](C)[C@@H]1NC(=O)[C@H](Cc2ccc(OC)cc2)NC(=O)[C@H](Cc2ccc(O)cc2)NC(=O)[C@H](CC(N)=O)NC(=O)[C@H](Cc2c[nH]c3ccccc23)N(C)C(=O)[C@H](C(C)C)NC(=O)[C@H](Cc2cccc(Cl)c2)N(C)C(=O)[C@H](CCC(=O)O)NC(=O)[C@H](C)NC(=O)CSC[C@@H](C(N)=O)NC(=O)[C@H](CO)NC(=O)[C@H]([C@@H](C)CC)NC1=O` [compound 203] ({CH2CO}-AE[NMePhe(3-Cl)]V[NMeW]NYY(Me)IISC-NH2; thioether N-12), the equilibrium dissociation constant (Kd) is 1 to 100 nM.

As for `CC[C@H](C)[C@@H]1NC(=O)[C@H](Cc2ccc(O)cc2)NC(=O)[C@H](Cc2ccc(O)cc2)NC(=O)[C@H](CC(N)=O)NC(=O)[C@H](Cc2c[nH]c3ccccc23)NC(=O)[C@H](C(C)C)NC(=O)[C@H](Cc2ccccc2)NC(=O)[C@H](C(C)C)NC(=O)[C@H](C)NC(=O)CSC[C@@H](C(=O)NCCOCCOCCOCCOCCOCCOCCOCCOCCOCCOCCOCCOCCC(=O)N[C@@H](CCCCNC(=O)c2ccc(-c3c4ccc(=O)cc-4oc4cc(O)ccc34)c(C(=O)O)c2)C(N)=O)NC(=O)[C@H](Cc2c[nH]cn2)NC(=O)[C@H](C(C)C)NC1=O` [compound 204] ({CH2CO}-AVFVWNYYIVHC[PEG12]K(X2)-NH2; thioether N-12), the Kd was in the range of 100 to 1000 nM.

Turning to `CC[C@H](C)[C@@H]1NC(=O)[C@H](Cc2ccc(OC)cc2)NC(=O)[C@H](Cc2ccc(O)cc2)NC(=O)[C@H](CC(N)=O)NC(=O)[C@H](Cc2c[nH]c3ccccc23)N(C)C(=O)[C@H](C(C)C)NC(=O)[C@H](Cc2cccc(Cl)c2)N(C)C(=O)[C@H](CCC(=O)O)NC(=O)[C@H](C)NC(=O)CSC[C@@H](C(N)=O)NC(=O)[C@H](CCC(=O)O)NC(=O)[C@H](CCCNC(=N)N)NC(=O)[C@@H]2CCCN2C(=O)[C@H](C(C)C)NC1=O` [compound 206] ({CH2CO}-AE[NMePhe(3-Cl)]V[NMeW]NYY(Me)IVPREC-NH2; thioether N-14), the Kd was 1 to 100 nM.

`CC[C@H](C)[C@@H]1NC(=O)[C@H](Cc2ccc(OC)cc2)NC(=O)[C@H](Cc2ccc(O)cc2)NC(=O)[C@H](CC(N)=O)NC(=O)[C@H](Cc2c[nH]c3ccccc23)N(C)C(=O)[C@H](C(C)C)NC(=O)[C@H](Cc2cccc(Cl)c2)N(C)C(=O)[C@H](CCC(=O)O)NC(=O)[C@H](C)NC(=O)CSC[C@@H](C(N)=O)NC(=O)[C@H](CC(N)=O)NC(=O)[C@H](CCCNC(=N)N)NC(=O)[C@@H]2CCCN2C(=O)[C@H](C(C)C)NC1=O` [compound 207] ({CH2CO}-AE[NMePhe(3-Cl)]V[NMeW]NYY(Me)IVPRNC-NH2; thioether N-14): the Kd was in the range of 1 to 100 nM.

On to `CC[C@H](C)[C@@H]1NC(=O)[C@H](Cc2ccccc2)NC(=O)[C@H](Cc2ccc(O)cc2)NC(=O)[C@H](CC(N)=O)NC(=O)[C@H](Cc2c[nH]c3ccccc23)NC(=O)[C@H](C(C)C)NC(=O)[C@H](Cc2c[nH]c3ccccc23)NC(=O)[C@H](C(C)C)NC(=O)[C@H](C)NC(=O)CSC[C@@H](C(=O)NCCOCCOCCOCCOCCOCCOCCOCCOCCOCCOCCOCCOCCC(=O)N[C@@H](CCCCNC(=O)c2ccc(-c3c4ccc(=O)cc-4oc4cc(O)ccc34)c(C(=O)O)c2)C(N)=O)NC(=O)[C@H](Cc2c[nH]cn2)NC(=O)[C@H](CCCNC(=N)N)NC(=O)[C@@H]2CCCN2C(=O)[C@H]([C@@H](C)CC)NC1=O` [compound 208] ({CH2CO}-AVWVWNYFIIPRHC[PEG12]K(X2)-NH2; thioether N-14), for which the Kd was 1 to 100 nM.

`CC[C@H](C)[C@@H]1NC(=O)[C@H](Cc2ccc(O)cc2)NC(=O)[C@H](Cc2ccc(O)cc2)NC(=O)[C@H](CC(N)=O)NC(=O)[C@H](Cc2c[nH]c3ccccc23)NC(=O)[C@H](C(C)C)NC(=O)[C@H](Cc2ccccc2)NC(=O)[C@H](C(C)C)NC(=O)[C@H](C)NC(=O)CSC[C@@H](C(=O)NCCOCCOCCOCCOCCOCCOCCOCCOCCOCCOCCOCCOCCC(=O)N[C@@H](CCCCNC(=O)c2ccc(-c3c4ccc(=O)cc-4oc4cc(O)ccc34)c(C(=O)O)c2)C(N)=O)NC(=O)[C@H](CC(=O)O)NC(=O)[C@H](CCCNC(=N)N)NC(=O)[C@@H]2CCCN2C(=O)[C@H](C(C)C)NC1=O` [compound 209] ({CH2CO}-AVFVWNYYIVPRDC[PEG12]K(X2)-NH2; thioether N-14): the dissociation constant (Kd) was in the range of 1 to 100 nM.

Staying with this assay, now noted: hTfR binding by SPR; hTfR No. 894 variant peptides, linker-added peptides and payload conjugates (Table 2); read-out: KD value obtained from the SPR measurement.
In the case of `CC[C@H](C)[C@@H]1NC(=O)[C@H](Cc2ccc(O)cc2)NC(=O)[C@H](Cc2ccc(O)cc2)NC(=O)[C@H](CC(N)=O)NC(=O)[C@H](Cc2c[nH]c3ccccc23)NC(=O)[C@H](C(C)C)NC(=O)[C@H](Cc2ccccc2)N(C)C(=O)[C@H](C(C)C)NC(=O)[C@H](C)NC(=O)CSC[C@@H](C(=O)NCC(=O)NCC(=O)N[C@@H](CO)C(=O)N[C@@H](CO)C(=O)N[C@@H](CCCCNC(=O)C2CCC(CN3C(=O)C=CC3=O)CC2)C(N)=O)NC(=O)[C@H](Cc2ccc(O)cc2)N(C)C(=O)[C@H](Cc2ccc(O)cc2)NC(=O)[C@H](CCCNC(=N)N)NC(=O)[C@H](CCCNC(=N)N)NC(=O)[C@H]([C@@H](C)CC)NC1=O` (stereo partly shown) [compound 193], the dissociation constant Kd was in the range of 1 to 100 nM.

For the molecule `CC[C@H](C)[C@@H]1NC(=O)[C@H](Cc2ccc(O)cc2)NC(=O)[C@H](Cc2ccc(O)cc2)NC(=O)[C@H](CC(N)=O)NC(=O)[C@H](Cc2c[nH]c3ccccc23)NC(=O)[C@H](C(C)C)NC(=O)[C@H](Cc2ccccc2)N(C)C(=O)[C@H](C(C)C)NC(=O)[C@H](C)NC(=O)CSC[C@@H](C(=O)NCC(=O)NCC(=O)N[C@@H](CO)C(=O)N[C@@H](CCCCNC(=O)C2CCC(CN3C(=O)C=CC3=O)CC2)C(N)=O)NC(=O)[C@H](Cc2ccc(O)cc2)N(C)C(=O)[C@H](Cc2ccc(O)cc2)NC(=O)[C@H](CCCNC(=N)N)NC(=O)[C@H](CCCNC(=N)N)NC(=O)[C@H]([C@@H](C)CC)NC1=O` (stereo partly shown) [compound 194], the dissociation constant Kd lay in the range of 1 to 100 nM.

For `CC[C@H](C)[C@@H]1NC(=O)[C@H](Cc2ccc(O)cc2)NC(=O)[C@H](Cc2ccc(O)cc2)NC(=O)[C@H](CC(N)=O)NC(=O)[C@H](Cc2c[nH]c3ccccc23)NC(=O)[C@H](C(C)C)NC(=O)[C@H](Cc2ccccc2)N(C)C(=O)[C@H](C(C)C)NC(=O)[C@H](C)NC(=O)CSC[C@@H](C(=O)NCC(=O)NCC(=O)N[C@@H](CCCCNC(=O)C2CCC(CN3C(=O)C=CC3=O)CC2)C(N)=O)NC(=O)[C@H](Cc2ccc(O)cc2)N(C)C(=O)[C@H](Cc2ccc(O)cc2)NC(=O)[C@H](CCCNC(=N)N)NC(=O)[C@H](CCCNC(=N)N)NC(=O)[C@H]([C@@H](C)CC)NC1=O` (stereo partly shown) [compound 195], the Kd fell in the range of 1 to 100 nM.

Take `CC[C@H](C)[C@@H]1NC(=O)[C@H](Cc2ccc(O)cc2)NC(=O)[C@H](Cc2ccc(O)cc2)NC(=O)[C@H](CC(N)=O)NC(=O)[C@H](Cc2c[nH]c3ccccc23)NC(=O)[C@H](C(C)C)NC(=O)[C@H](Cc2ccccc2)N(C)C(=O)[C@H](C(C)C)NC(=O)[C@H](C)NC(=O)CSC[C@@H](C(=O)NCC(=O)NCC(=O)N[C@@H](CO)C(=O)NCC(=O)N[C@@H](CO)C(=O)N[C@@H](CO)C(=O)NCC(=O)NCC(=O)N[C@@H](CO)C(=O)NCC(=O)N[C@@H](CO)C(=O)N[C@@H](CO)C(=O)N[C@@H](CCCCNC(=O)C2CCC(CN3C(=O)C=CC3=O)CC2)C(N)=O)NC(=O)[C@H](Cc2ccc(O)cc2)N(C)C(=O)[C@H](Cc2ccc(O)cc2)NC(=O)[C@H](CCCNC(=N)N)NC(=O)[C@H](CCCNC(=N)N)NC(=O)[C@H]([C@@H](C)CC)NC1=O` (stereo partly shown) [compound 196]: the dissociation constant Kd fell in the range of 1 to 100 nM.

Turning to `CC[C@H](C)[C@@H]1NC(=O)[C@H](Cc2ccc(O)cc2)NC(=O)[C@H](Cc2ccc(O)cc2)NC(=O)[C@H](CC(N)=O)NC(=O)[C@H](Cc2c[nH]c3ccccc23)N(C)C(=O)[C@H](C(C)C)NC(=O)[C@H](Cc2ccccc2)NC(=O)[C@H](C(C)C)NC(=O)[C@H](C)NC(=O)CSC[C@@H](C(=O)NCC(=O)N[C@@H](CO)C(=O)N[C@@H](CO)C(=O)NCC(=O)N[C@@H](CO)C(=O)N[C@@H](CO)C(=O)N[C@@H](CCCCNC(=O)C2CCC(CN3C(=O)C=CC3=O)CC2)C(N)=O)NC(=O)[C@H](Cc2ccc(O)cc2)N(C)C(=O)[C@H](Cc2ccc(O)cc2)NC(=O)[C@H](CCCNC(=N)N)NC(=O)[C@H](CCCNC(=N)N)NC(=O)[C@H]([C@@H](C)CC)NC1=O` (stereo partly shown) [compound 197], the Kd is 1 to 100 nM.

With `CC[C@H](C)[C@@H]1NC(=O)[C@H](Cc2ccc(O)cc2)NC(=O)[C@H](Cc2ccc(O)cc2)NC(=O)[C@H](CC(N)=O)NC(=O)[C@H](Cc2c[nH]c3ccccc23)N(C)C(=O)[C@H](C(C)C)NC(=O)[C@H](Cc2ccccc2)N(C)C(=O)[C@H](C(C)C)NC(=O)[C@H](C)NC(=O)CSC[C@@H](C(=O)NCC(=O)NCC(=O)N[C@@H](CCCNC(=N)N)C(=O)NCC(=O)N[C@@H](CCCNC(=N)N)C(=O)N[C@@H](CO)C(=O)N[C@@H](CCCCNC(=O)C2CCC(CN3C(=O)C=CC3=O)CC2)C(N)=O)NC(=O)[C@H](Cc2ccc(O)cc2)N(C)C(=O)[C@H](Cc2ccc(O)cc2)NC(=O)[C@H](CCCNC(=N)N)NC(=O)[C@H](CCCNC(=N)N)NC(=O)[C@H]([C@@H](C)CC)NC1=O` (stereo partly shown) [compound 198], the Kd was in the range of 1 to 100 nM.

Consider `CC[C@H](C)[C@@H]1NC(=O)[C@H](Cc2ccc(O)cc2)NC(=O)[C@H](Cc2ccc(O)cc2)NC(=O)[C@H](CC(N)=O)NC(=O)[C@H](Cc2c[nH]c3ccccc23)N(C)C(=O)[C@H](C(C)C)NC(=O)[C@H](Cc2ccccc2)N(C)C(=O)[C@H](C(C)C)NC(=O)[C@H](C)NC(=O)CSC[C@@H](C(=O)NCC(=O)NCC(=O)N[C@@H](CCCNC(=N)N)C(=O)N[C@@H](CO)C(=O)N[C@@H](CCC(=O)O)C(=O)N[C@@H](CO)C(=O)N[C@@H](CCCCNC(=O)C2CCC(CN3C(=O)C=CC3=O)CC2)C(N)=O)NC(=O)[C@H](Cc2ccc(O)cc2)N(C)C(=O)[C@H](Cc2ccc(O)cc2)NC(=O)[C@H](CCCNC(=N)N)NC(=O)[C@H](CCCNC(=N)N)NC(=O)[C@H]([C@@H](C)CC)NC1=O` (stereo partly shown) [compound 199], for which the Kd was 1 to 100 nM.

(Values after patent US20230203098A1, “HUMAN TRANSFERRIN RECEPTOR BINDING PEPTIDE” (priority 2020, published 2023).)
